According to ChEMBL document CHEMBL1201862, “PubChem BioAssay data set” (2004):
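A five-concentration, 48-hour dose response in 96-well plates underlies each endpoint, interpolated linearly between surrounding concentrations. Here, GI50 denotes the concentration required for 50% inhibition of growth.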 Active and inactive are the calls of the source. Rule as the data show it: active = GI50 up to about 1.1 µM and inactive = higher.

Assays:
Assay in all cases: DTP human tumour cell line panel, 48 h
A498 = tested on: A498
A549 = tested on: A549
BT-549 = tested on: BT-549
HCC 2998 = tested on: HCC 2998
HOP-62 = tested on: HOP-62
HOP-92 = tested on: HOP-92
HT-29 = tested on: HT-29
IGROV-1 = tested on: IGROV-1
MDA-N = tested on: MDA-N
NCI-H522 = tested on: NCI-H522
SK-MEL-2 = tested on: SK-MEL-2
SK-MEL-5 = tested on: SK-MEL-5
SK-OV-3 = tested on: SK-OV-3
SNB-19 = tested on: SNB-19
TK-10 = tested on: TK-10
CCRF-CEM = tested on: CCRF-CEM
T47D = tested on: T47D
MDA-MB-231 = tested on: MDA-MB-231

Measured: GI50

Nc1nc2ncc(SCc3ccc(C(=O)NC(CCC(=O)O)C(=O)O)cc3)cc2c(=O)[nH]1 (stereo not drawn)
inactive: A498 > 100 µM | A549 > 100 µM | BT-549 > 100 µM | HCC 2998 > 100 µM | HOP-62 > 100 µM | HOP-92 > 100 µM | HT-29 > 100 µM | IGROV-1 > 100 µM | MDA-N > 100 µM | NCI-H522 > 100 µM | SK-MEL-2 > 100 µM | SK-MEL-5 > 100 µM | SK-OV-3 > 100 µM | SNB-19 > 100 µM | TK-10 > 100 µM

Cc1ccc([S+]([O-])c2cccs2)cc1 (stereo not drawn)
inactive: A498 38.1 µM | A549 > 100 µM | BT-549 > 100 µM | CCRF-CEM > 100 µM | HOP-62 > 100 µM | HOP-92 > 100 µM | HT-29 > 100 µM | MDA-N > 100 µM | SNB-19 > 100 µM | T47D > 100 µM | TK-10 > 100 µM

O=c1[nH]ncc2[nH]c3c4ccccc4ccc3c12
inactive: A549 22.2 µM | BT-549 93.8 µM | CCRF-CEM 46.3 µM | HCC 2998 60.1 µM | HOP-62 40.6 µM | HOP-92 14 µM | HT-29 39 µM | MDA-N 26.4 µM | NCI-H522 19 µM | SK-MEL-5 28.1 µM | SK-OV-3 31.1 µM | T47D 52.8 µM | TK-10 28.6 µM

O=C(c1cccs1)N1CCCN(C(=O)c2cccs2)C1=S
inactive: A498 > 100 µM | BT-549 > 100 µM | CCRF-CEM > 100 µM | HOP-62 26.2 µM | HT-29 > 100 µM | IGROV-1 > 100 µM | MDA-MB-231 > 100 µM | SK-MEL-2 84.7 µM | SK-MEL-5 > 100 µM | SK-OV-3 > 100 µM | SNB-19 > 100 µM | T47D > 100 µM | TK-10 > 100 µM

CC(C)C(=O)[C@@]1(C)SC[C@H]2CCN=C21
inactive: A498 34.4 µM | A549 > 100 µM | BT-549 > 100 µM | CCRF-CEM > 100 µM | HCC 2998 > 100 µM | HOP-92 16.9 µM | HT-29 > 100 µM | IGROV-1 > 100 µM | MDA-N 34.8 µM | NCI-H522 52 µM | SK-MEL-5 > 100 µM | SK-OV-3 > 100 µM | SNB-19 > 100 µM | TK-10 > 100 µM

N[C@H]1CCc2c1nc1c(c2-c2ccccc2)CC[C@@H]1N
inactive: A549 34 µM | BT-549 12.4 µM | CCRF-CEM 17.6 µM | HCC 2998 21.4 µM | HOP-62 31.7 µM | HOP-92 21.3 µM | HT-29 11.9 µM | IGROV-1 14.7 µM | MDA-MB-231 18.3 µM | NCI-H522 16.2 µM | SK-MEL-2 18.5 µM | SK-MEL-5 15.9 µM | SNB-19 82.8 µM | TK-10 28.3 µM

CN(C)c1ccc(/C=N/c2ccc(-c3nc4ccccc4o3)cc2)cc1
inactive: A498 53 µM | A549 46.9 µM | BT-549 32.4 µM | HCC 2998 14.7 µM | HOP-62 35 µM | HOP-92 70.3 µM | HT-29 56.2 µM | IGROV-1 42.6 µM | MDA-MB-231 53.2 µM | NCI-H522 42.3 µM | SK-MEL-2 30.6 µM | SK-MEL-5 13 µM | SK-OV-3 35 µM | SNB-19 > 100 µM | T47D 19.4 µM | TK-10 36.5 µM

CCOC(CN(C)C(=S)Nc1cccc2ccccc12)OCC
inactive: A498 6.95 µM | A549 > 10 µM | CCRF-CEM > 10 µM | HCC 2998 > 10 µM | HOP-62 > 10 µM | HOP-92 5.51 µM | HT-29 > 10 µM | IGROV-1 > 10 µM | MDA-MB-231 > 10 µM | MDA-N > 10 µM | NCI-H522 > 10 µM | SK-MEL-2 > 10 µM | SK-MEL-5 > 10 µM | SK-OV-3 > 10 µM | SNB-19 > 10 µM | T47D > 10 µM | TK-10 > 10 µM

CCC1c2[nH]c3ccccc3c2C[C@H]2C(=O)NC(COC(C)(C)C)C(=O)N12 (stereo partly drawn)
inactive: A498 72.3 µM | A549 39.3 µM | BT-549 34 µM | HOP-62 76.6 µM | HOP-92 21.2 µM | HT-29 38.2 µM | IGROV-1 29.8 µM | MDA-MB-231 36.9 µM | NCI-H522 38.5 µM | SK-MEL-2 32.8 µM | SK-MEL-5 27.8 µM | SK-OV-3 63 µM | SNB-19 49.1 µM | T47D 44.9 µM | TK-10 27.1 µM
